Assay results published in patent US12286632B2, “Rationally-designed synthetic peptide shuttle agents for delivering polypeptide cargos from an extracellular space to the cytosol and/or nucleus of a target eukaryotic cell, uses thereof, methods and kits relating to same” (Feldan Bio Inc., priority 2016, dated 2025).

Test system: HeLa cells
Assay: Transfection plasmid surrogate assay for delivered CRISPR/Cas9-NLS complex (mCherry/GFP fluorescence)
Format: cell-based, Human
Settings: shuttle 35 μM; 24 and 48 hours post-transduction
Source text: This assay enables one to visually identify cells that have been successfully delivered an active […]as9 complex. […] Transfection of the cells with the expression plasmid results in mCherry™ expression, but no GFP expression (FIG. 39B). […] Successful transduction of an active CRISPR/Cas9 complex results in the CRISPR/Cas9 complex cleaving the plasmid DNA at the STOP codon (FIG. 39C). In a fraction of the cells, random non-homologous DNA repair of the cleaved plasmid occurs and results in removal of the STOP codon, and thus GFP expression and fluorescence (FIG. 39E).
On Day 1 of the transfection plasmid surrogate assay, DNA plasmids for different experimental conditions (250 ng) are diluted in DMEM (50 μL) in separate sterile 1.5-mL tubes, vortexed and briefly centrifuged. In separate sterile 1.5-mL tubes, Fastfect™ transfection reagent was diluted in DMEM (50 μL) with no serum and no antibiotics at a ratio of 3:1 (3 μL of Fastfect™ transfection reagent for 1 μg of DNA) and then quickly vortexed and briefly centrifuged. The Fastfect™/DMEM mixture was then added to the DNA mix and quickly vortexed and briefly centrifuged. The Fastfect™/DMEM/DNA mixture is then incubated for 15-20 min at room temperature, before being added to the cells (100 μL per well). The cells are then incubated at 37° C. and 5% CO2 for 5 h. […]

Compound: CC[C@H](C)[C@H](NC(=O)[C@H](CCCCN)NC(=O)[C@H](CCCCN)NC(=O)[C@H](Cc1ccccc1)NC(=O)[C@H](CC(C)C)NC(=O)[C@H](CCCCN)NC(=O)[C@H](Cc1c[nH]c2ccccc12)NC(=O)[C@H](CCCCN)NC(=O)[C@H](Cc1c[nH]cn1)NC(=O)[C@H](Cc1c[nH]cn1)NC(=O)[C@H](Cc1c[nH]cn1)NC(=O)[C@H](Cc1c[nH]cn1)NC(=O)[C@H](Cc1c[nH]cn1)NC(=O)[C@@H](N)Cc1c[nH]cn1)C(=O)NCC(=O)N[C@@H](C)C(=O)N[C@H](C(=O)N[C@@H](CC(C)C)C(=O)N[C@@H](CCCCN)C(=O)N[C@H](C(=O)N[C@@H](CC(C)C)C(=O)N[C@H](C(=O)N[C@H](C(=O)NCC(=O)N[C@@H](Cc1ccc(O)cc1)C(=O)N[C@@H](C)C(=O)N[C@@H](CCCNC(=N)N)C(=O)N[C@@H](C)C(=O)N[C@@H](C)C(=O)N[C@@H](C)C(=O)N[C@@H](CCCNC(=N)N)C(=O)N[C@@H](CCC(N)=O)C(=O)N[C@@H](C)C(=O)N[C@@H](CCCNC(=N)N)C(=O)N[C@@H](C)C(=O)O)[C@@H](C)O)[C@@H](C)O)C(C)C)C(C)C [His-CM18-PTD4]
- GFP expression after CRISPR/Cas9-NLS cleavage of plasmid surrogate: GFP fluorescence, the latter resulting from removal of the STOP codon by the transduced CRISPR/Cas9-NLS complex
